# Reference: ChEMBL document CHEMBL1150947, “Indole alkaloids from the tunicate Aplidium meridianum” (J Nat Prod, 1998)
# Experiment: Cytotoxicity against mouse LMM3 cells
# Format: functional, cell-based
structure (smiles),measurement,value
Nc1nccc(-c2c[nH]c3cc(Br)cc(O)c23)n1 [MERIDIANIN B],IC50,11.4 µM
Nc1nccc(-c2c[nH]c3ccc(Br)cc23)n1 [MERIDIANIN C],IC50,9.3 µM
